# Experimental data taken from article PMC12040169 (PLOS Biology, 2025).
# Test: in vitro
# Conditions: human, hela cells, % viability
row,Structure (SMILES),"viability at 28.5 h, 10 µM"
1,c1ccc2oc(-c3cc4ccccc4o3)cc2c1 [CBK113363],113%
2,OCc1cc(Cl)c(Cl)c(CO)c1O [CBK269397],95.5%
3,O=C(NCC1COc2ccccc2O1)N1CCCCC1CO (centres unmarked) [CBK156162],103%
4,CC1CCc2nn(CCNC(=O)Cc3ccc(F)cc3)c(=O)cc2C1 (centres unmarked) [CBK284485],92.5%
5,CCC(CN1CCCC1)NC(=O)Cc1c(C)[nH]c2ccc(F)cc12 (centres unmarked) [CBK282751],76.4%
6,COC(=O)c1ccccc1NC(=O)c1cc2nc(-c3cccs3)cc(C(F)(F)F)n2n1 [CBK262524],88%
7,Cc1ccc(O)c(NC(=O)Cn2nc([N+](=O)[O-])c(Br)c2C)c1 [CBK261718],92.2%
8,Cc1ccc(C(=O)/C=C(\Nc2cccc(C(F)(F)F)c2)C(=O)O)cc1 [CBK264366],101%
9,CC(=O)N1Cc2ccccc2OC2(CCN(C(=O)C3CC3)CC2)C1 [CBK285037],104%
10,CCCCC1CCC(c2noc(-c3ccc(F)cc3)n2)CC1 (centres unmarked) [CBK027363],90.3%
11,Nc1ccc(-c2nc3cc(C(=O)c4ccc5[nH]c(-c6ccc(N)cc6)nc5c4)ccc3[nH]2)cc1 [CBK262848],99.7%
12,COc1ccc(-c2cc(N3CCCN(C)CC3)n3nccc3n2)cc1 [CBK037244],106%
13,O=C(O)CCn1c2ccc(Br)cc2c2cc(Br)ccc21 [CBK262551],83.9%
14,COC(=O)c1sc(NC(=S)Nc2ccn(C)n2)c(C(=O)OC)c1C [CBK267078],99.5%
15,CC1CCCN(C(=O)c2cc(S(=O)(=O)N3CCOCC3)ccc2Cl)C1 (centres unmarked) [CBK305012],99.5%
16,CC(=O)NC1(c2ccc(F)cc2)CCN(Cc2cccnc2)CC1 [CBK283610],103%
17,COc1cccc(-c2ccc(NC(=O)c3ccc(Cn4cnnn4)cc3)cc2)c1 [CBK285850],93.4%
18,Cn1cccc1CN1CCCC(n2c(=O)oc3ccccc32)C1 (centres unmarked) [CBK285111],103%
19,Cc1cc(S(=O)(=O)N(CCC#N)c2ccccc2)c(C)cc1Cl [CBK043618],85.7%
20,CC1(C)OCC2(CCN(C(C)(C)C)CC2)O1 [CBK038298],93.2%
21,COc1cccc(-c2n[nH]c3c2C(c2cccnc2)NC3=O)c1 (centres unmarked) [CBK288238],86.3%
22,Cc1nn(C(C)CC(=O)NCC2CCN(C(C)C)CC2)c(C)c1C (centres unmarked) [CBK282703],84.2%
23,Cn1cc(CNS(=O)(=O)c2ccc(F)c(Br)c2)cn1 [CBK305174],92.5%

row,Structure (SMILES),"viability at 28.5 h, 10 µM"
1,c1ccc(-c2nc(-c3ccncc3)sc2-c2ccccc2)cc1 [CBK291203],116%
2,CCN(CC(C)C#N)C(=O)c1nn(-c2ccccc2)c(C)cc1=O (centres unmarked) [CBK304925],109%
3,O=C(Cn1cc(C(=O)NCC2(c3ccccc3Cl)CC2)ccc1=O)NC1CCCCC1 [CBK285985],92.7%
4,Oc1ccc(-c2n[nH]c(C(F)(F)F)c2Oc2ccc(F)cc2)c(O)c1 [CBK264440],89.5%
5,CN1C(=O)/C(=C2\SC(=S)N(C(Cc3ccccc3)C(=O)O)C2=O)c2ccccc21 (centres unmarked) [CBK263507],99.6%
6,CC(C)(C)OC(=O)N1CCC(Oc2nccnc2Cl)CC1 [CBK067386],89.8%
7,O=C(Cc1ccc(Br)cc1)Nc1cc(C(=O)O)cc(C(=O)O)c1 [CBK268228],88.8%
8,CC(C)OC(=O)c1cc2n(n1)C(C(F)(F)F)CC(c1cccs1)N2 (centres unmarked) [CBK307176],87.6%
9,CS(=O)(=O)Nc1nccnc1OC1CCN(CCc2ccccn2)CC1 [CBK084286],109%
10,NC(=O)c1cccc(-c2nc(-c3cc4ccccc4o3)cnc2N)c1 [CBK063996],94.5%
11,COc1ccccc1-c1nccnc1N[C@@H](CO)C(C)C [CBK089034],93.6%
12,COc1nccnc1N1CCN(CCOc2ccccc2)CC1 [CBK084230],94.1%
13,CNC(=O)c1nn(CCCc2ccc(OC)cc2)c2ccccc12 [CBK105842],109%
14,CC(C)(C)OC(=O)N1CCC(CNCc2cc(F)cc(F)c2)CC1 [CBK056715],119%
15,COc1ccc(C(C)C)cc1-c1cncc(Nc2ccc(Cl)cc2)n1 [CBK065285],108%
16,Cc1ccc(CNC(=O)Cn2nnc(-c3ccc(CNCC(F)(F)F)cc3)n2)cc1 [CBK153204T],116%
17,O=C(O)c1cccc(NCN2C(=O)c3ccc([N+](=O)[O-])cc3C2=O)c1 [CBK261100],96%
18,COc1cncc(-c2cncc(N[C@H](CO)C(C)C)n2)c1 [CBK065329],106%
19,Brc1cnc(OCc2ccccc2)nc1OCc1ccccc1 [CBK261274],101%
20,Cc1nccn1CC1(O)CCN(Cc2c[nH]c3ccccc23)CC1 [CBK282671],82.1%
21,CC1CCc2c(sc3ncnc(NCCc4nc5ccccc5[nH]4)c23)C1 (centres unmarked) [CBK268809],91.6%
22,CN1CCN(CCCN2C(=O)CSC2c2cccc([N+](=O)[O-])c2)CC1 (centres unmarked) [CBK278237C],99.9%
23,CN1C(=O)c2ccccc2C(=O)[C@@]2(C)CN(C(=O)c3ccccc3)C[C@@H]12 [CBK281685],93.2%

row,Structure (SMILES),"viability at 28.5 h, 10 µM"
1,CCOc1ccc(Cc2nnnn2CC(=O)O)cc1 [CBK286677],91.2%
2,O=C(O)c1cc(S(=O)(=O)Nc2cc(-c3ccco3)n[nH]2)c(F)cc1Cl [CBK067292],92.6%
3,CSc1nnc(CC2CCN(C(=O)c3ccc(C)cc3F)CC2)n1C [CBK306939],105%
4,O=C(Nc1cccc(C(=O)O)c1)/C(=C\c1ccc2c(c1)OCO2)NC(=O)c1ccccc1 [CBK263697],113%
5,O=C(c1c[nH]c(-c2ncn[nH]2)c1)c1ccc(Cl)cc1Cl [CBK008334],93.4%
6,CNc1snc(N2CCOCC2)c1C#N [CBK011453],93%
7,CCc1nc(C(N)=O)c2[nH]c(=O)n(-c3ccccc3F)c2n1 [CBK287739],107%
8,Cn1cncc1CN(CCCn1ccnc1)Cc1ccccc1F [CBK282960],85%
9,CC(C)COc1ccc(-c2nonc2NC(=O)c2ccccc2F)cc1 [CBK299831],86%
10,CC(C)(CO)CCCn1cncc1-c1cnn(-c2ccc(F)cc2)c1 [CBK281466],117%
11,Cc1[nH]n(-c2nc3ccccc3o2)c(=O)c1Cc1c(Cl)cccc1Cl [CBK085382],96.5%
12,CC(C)CC12CN3CCN(CC(C3)/C1=N\N=C1/C3CN4CCN(C3)CC1(CC(C)C)C4)C2 [CBK265036],99.1%
13,C/C(=C1/SC(=S)N(CCC(=O)O)C1=O)c1ccc(O)cc1 [CBK265171],102%
14,Fc1ccc(-c2cncc(Nc3ccc4c(c3)OC(F)(F)C(F)(F)O4)n2)c(F)c1 [CBK065692],103%
15,COc1ccccc1OCCn1c(=N)n(CC(N)=O)c2ccccc21 [CBK268822C],88.6%
16,CN(Cc1cnn(C)c1)C(=O)COCc1nc2cc(F)ccc2[nH]1 [CBK306687],94.3%
17,COc1cccc(OC)c1OCCN1CCC(NC(=O)Nc2ccc(Cl)cn2)CC1 [CBK051515],94.4%
18,CC(=O)N1CCc2cc(NC(=O)c3cc4cc(C)ccc4o3)ccc21 [CBK281470],86.2%
19,COc1ccc(C)cc1S(=O)(=O)N(C)CC(=O)Nc1cccc(SC)c1 [CBK267510],101%
20,Cc1nn(C)c(C)c1S(=O)(=O)n1ccn(-c2cccc(C(F)(F)F)c2)c1=O [CBK106593],98.7%
21,Cc1ncccc1C(=O)NC(Cc1cccs1)c1nccs1 (centres unmarked) [CBK285153],91.4%
22,COCCN(Cc1ccncc1)C(=O)c1cc(C(C)C)n2ncnc2n1 [CBK306983],97.4%
23,CCN(CC(=O)N1CCN(Cc2ccc3c(c2)OCO3)CC1)S(=O)(=O)c1ccccc1 [CBK269436],92.3%

row,Structure (SMILES),"viability at 28.5 h, 10 µM"
1,Cc1cc(C)nc(SCCC(=O)O)n1 [CBK260975],87.7%
2,COc1cc(F)cc(OC2CCNCC2)c1NC(=O)c1coc2c1C(=O)CCC2 [CBK050351T],91.5%
3,Cn1c(=O)c2c(ncn2CC(=O)Nc2ccccc2I)n(C)c1=O [CBK133275],95.6%
4,O=C(O)CCC(=O)N1CCN(c2ncccn2)CC1 [CBK057422],114%
5,O=c1c2c(nc(SCCc3ccccc3)n1CCc1ccccc1)-c1ccccc1CC21CCCCC1 [CBK262661],86.8%
6,Cc1nc2ccccc2c(=O)n1CCC(=O)N1CCc2sccc2C1c1ccco1 (centres unmarked) [CBK285706],94.3%
7,O=C(Nc1ccccc1Cl)N1CCN(CCN2CCOCC2)CC1 [CBK155824],89.4%
8,COc1ccc(Br)cc1CNCc1ccc(C(=O)O)cc1 [CBK269449C],96.2%
9,O=C(CNC(=O)c1ccccc1C(=O)O)Nc1ccccc1 [CBK286690],94.1%
10,Cn1c(=O)c2c(=S)[nH]c(-c3ccccc3)nc2n(C)c1=O [CBK288422],103%
11,Nc1nc(/C=C/c2cccs2)nc(-c2ccccc2O)n1 [CBK270033],105%
12,O=C(CSCc1ccc([N+](=O)[O-])cc1)Nc1ccc2c(c1)OCO2 [CBK264031],95.7%
13,O=C(O)C1CCN(c2c(-c3ccccc3)c3cc(Cl)ccc3[nH]c2=O)CC1 [CBK287198],87.3%
14,Cc1nnc2n1-c1ccc(Cl)cc1C(c1ccccc1)=NN2CCCC(=O)c1ccc(F)cc1 [CBK016076],86.6%
15,CC(C)(C)c1cc(C[C@H]2CNCC[C@H]2CC(=O)N2CCN(c3ccccn3)CC2)no1 [CBK288799],87.4%
16,CCNc1cncc(-c2cc(OC)c(OC)c(OC)c2)n1 [CBK065336],99.1%
17,Cc1ccc(C)c(NC(=O)N[C@@H](CC(C)C)C(=O)O)c1 [CBK286678],89%
18,O=C(O)CCC(=O)N1CCN(c2ccc(C(=O)c3ccc(F)cc3)cc2)CC1 [CBK269119],112%
19,COc1cccc(-c2csc(NS(=O)(=O)c3ccc(C)c(C(=O)O)c3)n2)c1 [CBK299803],99.1%
20,O=C(O)CC(NCc1ccccc1)C(=O)Nc1ccc(Cl)cc1 (centres unmarked) [CBK267141],95.4%
